One assay concerns WI-26. Kind of assay: PrestoBlue toxicity test, normal cells WI-26. Format: cell-based, Human. Particulars: WI-26, 48 h.
The next assay deals with WI-38. Kind of assay: PrestoBlue toxicity test, normal cells WI-38. Format: cell-based, Human. Particulars: WI-38, 48 h. The procedure:
(§1) Human lung cancer cells A549, NCl-H460 and 7 cancer cell lines were cultured in RPMI 1640 medium containing 10% FBS (Gibco, USA) and 1% penicillin-streptomycin. Human colon cancer cell HCT-116 cell line was cultured in McCoy's 5A medium containing 10% FBS (Gibco, USA) and 1% penicillin-streptomycin. Human leukemia cancer cell HL-60 cell line was cultured in IMDM medium containing 20% FBS (Gibco, USA) and 1% penicillin-streptomycin. Human normal cell line WI-38 was cultured in MEM containing 10% FBS (Gibco, USA), 1% penicillin-streptomycin, and 1% Non-Essential Amin Acids solution. Human normal cell line HUVEC cultured in Human Endothelial Growth Medium containing. All the cells were cultured in sterilized cell culture plastic dishes or 96-well plastic plates in a humidified incubator filled with 95% air and 5% CO2 gas and maintained at a temperature of 37° C.
(§2) First, the cells are seeded in a 96-well plate (Nunc, 165305) at a volume of 100 μl, and then cultured in an incubator overnight to confirm that they grow well on the plate. Depending on the concentration of the drugs, each well is treated with 100 μl of the compound and then incubated to allow cells and compounds to react for 48 hrs. PrestoBlue Cell Viability Reagent (Invitrogen, A13262) was added to the compound-treated well, and then the plates were incubated in a humidified incubator at 37° C. for 30 mins. Each well was measured at a fluorescence detected with the wavelength of an excitation of 560 nm and an emission of 590 nm using by microplate reader (BioTek, Synergy H1). The IC50 value is calculated by using the Gen5 software.

A further assay relates to A549. Description: PrestoBlue cell viability, A549. Format: cell-based, Human. The procedure:
as §1, §2

For the next assay, the system named is HCT-116. Kind of assay: PrestoBlue cell viability, HCT-116. Format: cell-based. Particulars: Homo sapiens; colon, HCF116 (HCT-116), 48 h. The procedure: as §1, §2
A further assay has as its system HL-60. Description: PrestoBlue cell viability, HL-60. Format: cell-based, Human. Particulars: HL-60, 48 h, leukemia. The procedure:
as §1, §2

Another assay has as its system H460. Description: PrestoBlue cell viability, H460. Format: cell-based, Human. Particulars: lung. The procedure:
as §1, §2

For a further assay, the system named is MDA-MB-231. Description: PrestoBlue cell viability, MDA-MB-231. Particulars: Homo sapiens; breast, MDA-MB-231, 48 h. Format: cell-based. The procedure: as §1, §2
Another assay has as its system HUVEC. Description: PrestoBlue toxicity test, normal cells HUVEC. Format: cell-based, Human. Particulars: 48 h. The procedure: as §1, §2
Another assay has as its system H1299. Kind of assay: PrestoBlue cell viability, H1299. Format: cell-based. Particulars: Homo sapiens, NCI-H1299; lung, H1299, 48 h. The procedure: as §1, §2
A further assay relates to H146. Kind of assay: PrestoBlue cell viability, H146. Format: cell-based. Particulars: Homo sapiens, NCI-H146; lung, H146, 48 h. The procedure: as §1, §2
The next assay deals with H1975. Description: PrestoBlue cell viability, H1975. Format: cell-based. Particulars: Homo sapiens, NCI-H1975; lung, H1975, 48 h. The procedure: as §1, §2
In another assay the test system is CFPAC-1. Description: PrestoBlue cell viability, CFPAC-1. Format: cell-based. Particulars: Homo sapiens; pancreas, CFPAC-1, 48 h. The procedure: as §1, §2
The subject of a further assay is K562. Kind of assay: PrestoBlue cell viability, K562. Format: cell-based, Human. Particulars: for IC50: Homo sapiens, leukemia, K562, 48 h. The procedure:
as §1, §2

For another assay, the system named is H1650. Kind of assay: PrestoBlue cell viability, H1650. Particulars: Homo sapiens, NCI-H1650; lung, H1650, 48 h. Format: cell-based. The procedure: as §1, §2
The next assay deals with HCC827. Description: PrestoBlue cell viability, HCC827. Format: cell-based. Particulars: Homo sapiens; lung, HCC827, 48 h. The procedure: as §1, §2
The subject of another assay is BxPC-3. Kind of assay: PrestoBlue cell viability, BxPC-3. Format: cell-based. Particulars: Homo sapiens; pancreas, BxPC-3, 48 h. The procedure:
as §1, §2

For another assay, the system named is MCF-7. Kind of assay: PrestoBlue cell viability, MCF-7. Format: cell-based. Particulars: Homo sapiens, MCF7; breast, MCF-7, 48 h. The procedure: as §1, §2
The mark [1] stands for this setting: Homo sapiens, NCI-H460, H460, 48 h.

By IC50 is commonly meant the point on the concentration scale where inhibition reaches its midpoint.

Where only a bound is given, the exact number is not on record here.

With `C=CCCOc1c(OC)cc([C@@H]2C3=C(COC3=O)Cc3cc4c(cc32)OCO4)cc1OC` [example 5, (5S)-5-(4-But-3-enyloxy-3,5-dimethoxy-phenyl)-5,9-dihydro-8H-furo[3′,4′:6,7]naphtho[2,3-d][1,3]dioxol-6-one], the IC50 in the assay with WI-26 (Homo sapiens, 48 h) is not below 50 µM; in the assay on WI-38 (Homo sapiens), not below 50 µM; in the assay with WI-38, more than 50 µM; with A549 (Homo sapiens, A549, 48 h, lung), not below 50 µM; in the assay with A549 (lung, A549, 48 h), more than 50 µM; in the assay on HCT-116, more than 50 µM. In addition, the IC50 is more than 50 µM in the assay on HL-60 (Homo sapiens); not below 50 µM in the assay on H460 (Homo sapiens, NCI-H460, 48 h); more than 50 µM with H460 (H460, 48 h); more than 50 µM in the assay with MDA-MB-231; more than 50 µM in the assay with HUVEC; not below 50 µM in the assay with HUVEC (Homo sapiens).

For the molecule `COc1cc([C@@H]2C3=C(COC3=O)Cc3cc4c(cc32)OCO4)cc(OC)c1OCc1ccccc1` [example 3, (5S)-5-(4-Benzyloxy-3,5-dimethoxy-phenyl)-5,9-dihydro-8H-furo[3′,4′:6,7]naphtho[2,3-d][1,3]dioxol-6-one], the IC50 is more than 50 µM with H1299; more than 50 µM in the assay on H146; not below 50 µM with WI-26 (Homo sapiens, 48 h); more than 50 µM in the assay with WI-26; not below 50 µM with WI-38 (Homo sapiens); more than 50 µM with WI-38. For the same molecule, the half-maximal inhibitory concentration (IC50) was more than 50 µM with H1975; 0.127 µM in the assay with A549 (Homo sapiens; lung, A549, 48 h); more than 50 µM with CFPAC-1; 0.234 µM with HCT-116; more than 50 µM with K562; 0.181 µM with HL-60. In addition, the IC50 is more than 50 µM in the assay on H1650; more than 50 µM in the assay on HCC827; more than 50 µM in the assay on BxPC-3; 0.174 µM with H460 (setting [1]); more than 50 µM in the assay on MDA-MB-231; more than 50 µM in the assay with HUVEC. Besides, the IC50 was not below 50 µM in the assay with HUVEC (Homo sapiens) and more than 50 µM in the assay with MCF-7.

As for `COc1cc([C@@H]2C3=C(COC3=O)Cc3cc4c(cc32)OCO4)cc(OC)c1OCc1ccc(C(F)(F)F)cc1` [example 7, (5S)-5-[3,5-Dimethoxy-4-(4-trifluoromethyl-benzyloxy)-phenyl]-5,9-dihydro-8H-furo[3′,4′:6,7]naphtho[2,3-d][1,3]dioxol-6-one], the half-inhibitory concentration (IC50) in the assay with WI-26 (Homo sapiens, 48 h) is not below 50 µM; in the assay on WI-38 (Homo sapiens), not below 50 µM; with WI-38, more than 50 µM; in the assay with A549 (Homo sapiens, A549, 48 h, lung), not below 50 µM; in the assay on A549 (lung, A549, 48 h) it was more than 50 µM; with HCT-116, more than 50 µM. In addition, the IC50 with HL-60 (Homo sapiens) was more than 50 µM; in the assay with H460 (Homo sapiens, NCI-H460, 48 h), not below 50 µM; in the assay with H460 (H460, 48 h), more than 50 µM; in the assay with MDA-MB-231, more than 50 µM; in the assay with HUVEC, more than 50 µM; in the assay on HUVEC (Homo sapiens), not below 50 µM.

In the case of `COc1cc([C@@H]2C3=C(COC3=O)Cc3cc4c(cc32)OCO4)cc(OC)c1OCC1CCCCC1` [example 4, (5S)-5-(4-Cyclohexylmethoxy-3,5-dimethoxy-phenyl)-5,9-dihydro-8H-furo[3′,4′:6,7]naphtho[2,3-d][1,3]dioxol-6-one], the IC50 with WI-26 (Homo sapiens, 48 h) was not below 50 µM; with WI-38 (Homo sapiens), not below 50 µM; with WI-38, more than 50 µM; with A549 (Homo sapiens, A549, 48 h, lung), 0.698 µM; with HCT-116, 1.57 µM; in the assay on K562, 0.398 µM. For the same molecule, the IC50 in the assay on HL-60 (Homo sapiens) is more than 50 µM; in the assay with H460 (Homo sapiens, NCI-H460, 48 h), 0.796 µM; in the assay on MDA-MB-231 it was more than 50 µM; in the assay with HUVEC, more than 50 µM; in the assay on HUVEC (Homo sapiens), not below 50 µM. Moreover, the “effects against the blood cancer cell line K562 (in words)” value in the assay with K562 is recorded as “particularly excellent effects”.

Turning to `COc1cc([C@@H]2C3=C(COC3=O)Cc3cc4c(cc32)OCO4)cc(OC)c1OCc1ccc(F)cc1` [example 6, (5S)-5-[3,5-Dimethoxy-4-(4-fluorobenzyloxy)-phenyl]-5,9-dihydro-8H-furo[3′,4′:6,7]naphtho[2,3-d][1,3]dioxol-6-one], the IC50 in the assay on WI-26 (Homo sapiens, 48 h) was not below 50 µM; in the assay on WI-38 (Homo sapiens), not below 50 µM; with WI-38 it was more than 50 µM; in the assay on A549 (Homo sapiens, A549, 48 h, lung), 0.288 µM; with HCT-116, more than 50 µM; in the assay with K562, 0.247 µM. Also, the IC50 was more than 50 µM with HL-60 (Homo sapiens); 0.437 µM in the assay on H460 (Homo sapiens, NCI-H460, 48 h); more than 50 µM in the assay on MDA-MB-231; more than 50 µM with HUVEC; not below 50 µM in the assay with HUVEC (Homo sapiens). The “effects against the blood cancer cell line K562 (in words)” value in the assay with K562 is “particularly excellent effects”.

Consider `COc1cc([C@@H]2C3=C(COC3=O)Cc3cc4c(cc32)OCO4)cc(OC)c1OCc1ccc(C)cc1` [example 8, (5S)-5-[3,5-Dimethoxy-4-(4-methyl-benzyloxy)-phenyl]-5,9-dihydro-8H-furo[3′,4′:6,7]naphtho[2,3-d][1,3]dioxol-6-one], for which the IC50 in the assay with WI-26 (Homo sapiens, 48 h) is not below 50 µM; in the assay with WI-38 (Homo sapiens), not below 50 µM; in the assay with WI-38 it was more than 50 µM; with A549 (Homo sapiens, A549, 48 h, lung), not below 50 µM; in the assay on A549 (lung, A549, 48 h) it was more than 50 µM; in the assay on HCT-116, more than 50 µM. Besides, the IC50 was more than 50 µM in the assay with HL-60 (Homo sapiens); not below 50 µM in the assay on H460 (Homo sapiens, NCI-H460, 48 h); more than 50 µM in the assay on H460 (H460, 48 h); more than 50 µM in the assay with MDA-MB-231; more than 50 µM in the assay with HUVEC; not below 50 µM with HUVEC (Homo sapiens).

Turning to `COc1cc([C@@H]2C3=C(COC3=O)Cc3cc4c(cc32)OCO4)cc(OC)c1OC(C)=O` [example 1, Acetic acid (5S)-2,6-dimethoxy-4-(6-oxo-5,6,8,9-tetrahydrofuro[3′,4′:6,7]naphtho[2,3-d][1,3]dioxol-5-yl)-phenyl ester], the IC50 with H1299 is more than 50 µM; in the assay on H146, more than 50 µM; in the assay with WI-26 (Homo sapiens, 48 h) it was not below 50 µM; with WI-26 it was more than 50 µM; in the assay on WI-38 (Homo sapiens), not below 50 µM; in the assay with WI-38, more than 50 µM. Besides, the IC50 in the assay on H1975 is more than 50 µM; with A549 (Homo sapiens, A549, 48 h, lung), 0.065 µM; in the assay with CFPAC-1, more than 50 µM; in the assay with HCT-116, 0.129 µM; with K562 it was more than 50 µM; in the assay with HL-60, 0.03 µM. Moreover, the IC50 with H1650 was more than 50 µM; in the assay with HCC827 it was more than 50 µM; in the assay on BxPC-3, more than 50 µM; in the assay with H460 (Homo sapiens, NCI-H460, 48 h) it was 0.06 µM; in the assay on MDA-MB-231, more than 50 µM; with HUVEC it was more than 50 µM. Moreover, the IC50 in the assay with HUVEC (Homo sapiens) was not below 50 µM; with MCF-7, more than 50 µM.

`COc1cc([C@@H]2c3cc4c(cc3[C@@H](O[C@@H]3O[C@@H]5CO[C@@H](C)O[C@H]5[C@H](O)[C@H]3O)[C@H]3COC(=O)[C@H]23)OCO4)cc(OC)c1O` [Etoposide, reference compound]: the IC50 is 40.1 µM in the assay with H1299; more than 50 µM in the assay on H146; more than 50 µM in the assay on WI-38 (Homo sapiens); more than 50 µM with H1975; 2.16 µM in the assay on A549 (Homo sapiens; lung, A549, 48 h); 42 µM with CFPAC-1. Also, the IC50 in the assay with HCT-116 is 7.29 µM; in the assay with HL-60 (Homo sapiens), 2.43 µM; with H1650, more than 50 µM; in the assay on HCC827 it was more than 50 µM; in the assay on BxPC-3, more than 50 µM; with H460 (setting [1]), 0.971 µM. In addition, the IC50 with MDA-MB-231, in the assay on HUVEC (Homo sapiens) and with MCF-7 was more than 50 µM throughout.

Source of the values: patent US11407761B2, “Derivative of β-apopicropodophyllin and method of preparing thereof” (J&C Sciences, priority 2020, dated 2022).
